Experimental data: ChEMBL document CHEMBL1914304 (J Med Chem, 2011)

What was measured:
HepG2 = assay: Cytotoxicity against human HepG2 cells after 72 hrs by luminescence assay; assay type: cell-based; details: hepg2, 72 h
BJ = assay: Cytotoxicity against human BJ cells after 72 hrs by luminescence assay; assay type: cell-based
HEK293 = assay: Cytotoxicity against human HEK293 cells after 72 hrs by luminescence assay; assay type: cell-based; details: hek293, 72 h
Raji = assay: Cytotoxicity against human Raji cells after 72 hrs by luminescence assay; assay type: cell-based
[1] = Selectivity ratio of EC50 for human HepG2 cells to EC50 for Plasmodium falciparum

SMILES	Activity (HepG2)	Activity (BJ)	Activity (HEK293)	Activity (Raji)	selectivity ratio [1]
COc1cccc(N(CC(O)COc2ccccc2C(=O)CCc2ccc(F)cc2)c2ccccc2)c1.Cl (racemic)	Non-toxic	Non-toxic	Non-toxic	Non-toxic	> 10
CN(CCc1ccccc1)CC(O)COc1ccccc1C(=O)CCc1ccc(F)cc1.Cl (racemic)	Non-toxic	Non-toxic	Non-toxic	Non-toxic	> 10
CCN(CC)CC(O)COc1ccccc1C(=O)CCc1ccc(F)cc1.Cl (racemic)	Non-toxic	Non-toxic	Non-toxic	Non-toxic	> 10
CCCN(CCC)CC(O)COc1ccccc1C(=O)CCc1ccc(F)cc1.Cl (racemic)	Non-toxic	Non-toxic	Non-toxic	Non-toxic	> 10
CCCCN(CCCC)CC(O)COc1ccccc1C(=O)CCc1ccc(F)cc1.Cl (racemic)	Non-toxic	Non-toxic	Non-toxic	Non-toxic	> 10
CC(C)N(CC(O)COc1ccccc1C(=O)CCc1ccc(F)cc1)c1ccccc1.Cl (racemic)	Non-toxic	Non-toxic	Non-toxic	Non-toxic	> 10
Cl.O=C(CCc1ccc(F)cc1)c1ccccc1OCC(O)CN(C1CCCCC1)C1CCCCC1 (racemic)	Non-toxic	Non-toxic	Non-toxic	Non-toxic	> 10
Cl.O=C(CCc1ccccc1)c1cc(F)ccc1OCC(O)CNCc1ccccc1 (racemic)	Non-toxic	Non-toxic	Non-toxic	Non-toxic	> 10
Cl.O=C(CCc1ccccc1)c1cc(F)ccc1OCC(O)CN(Cc1ccccc1)c1ccccc1 (racemic)	Non-toxic	Non-toxic	Non-toxic	Non-toxic	> 10
Cc1cccc(N(CC(O)COc2ccc(F)cc2C(=O)CCc2ccccc2)c2ccccc2)c1.Cl (racemic)	Non-toxic	Non-toxic	Non-toxic	Non-toxic	> 10
COc1cccc(N(CC(O)COc2ccc(F)cc2C(=O)CCc2ccccc2)c2ccccc2)c1.Cl (racemic)	Non-toxic	Non-toxic	Non-toxic	Non-toxic	> 10
CN(CCc1ccccc1)CC(O)COc1ccc(F)cc1C(=O)CCc1ccccc1.Cl (racemic)	Non-toxic	Non-toxic	Non-toxic	Non-toxic	> 10
CCN(CC)CC(O)COc1ccc(F)cc1C(=O)CCc1ccccc1.Cl (racemic)	Non-toxic	Non-toxic	Non-toxic	Non-toxic	> 10
CCCN(CCC)CC(O)COc1ccc(F)cc1C(=O)CCc1ccccc1.Cl (racemic)	Non-toxic	Non-toxic	Non-toxic	Non-toxic	> 10
CCCCN(CCCC)CC(O)COc1ccc(F)cc1C(=O)CCc1ccccc1.Cl (racemic)	Non-toxic	Non-toxic	Non-toxic	Non-toxic	> 10
Cl.O=C(CCc1ccccc1)c1cc(F)ccc1OCC(O)CN(C1CCCCC1)C1CCCCC1 (racemic)	Non-toxic	Non-toxic	Non-toxic	Non-toxic	> 10
